The text below walks through data of US11484598B1, “Pleuromulin rhein ester with anti-drug resistant bacteria activity and a method of preparing the same” (XI'AN KANGYUANSHENG BIOMEDICAL TECHNOLOGY CO., LTD., priority 2021, dated 2022).

In brackets after ≈: the same amount, converted by molar mass.

Holding throughout (type): cell-based
Test [1] relates to multi-drug-resistant Pseudomonas aeruginosa MDR-PA 18-756. Kind of test: MIC by microbroth dilution method, MDR-PA 18-756. As to conditions: strain MDR-PA 18-756; 37° C., 20-22 hours. As for the experimental part: (§1) The minimal inhibitory concentration (MIC) of the compounds as determined by microbroth dilution method was measured with ceftazidime and vancomycin as positive control.
(§2) The experimental strains included drug-resistant gram-positive bacteria: methicillin-resistant Staphylococcus aureus MRSA 18-575; drug-resistant gram-negative bacteria: multi-drug-resistant Pseudomonas aeruginosa MDR-PA 18-126, 18-756, Carbapenem-resistant Acinetobacter baumannii CR-AB 18-184, 18-560. The experimental strains were all donated by Huashan Hospital Affiliated to Fudan University (Fudan University Antibiotic Research Institute), and used after being identified by conventional methods.
(§3) Preparation of MHB medium: 20.0 g NMB medium was added to 1 L distilled water, boiled until completely dissolved, packed in conical bottles and sterilized at 121° C. for 15 min.
(§4) The experimental strain was cultured to the logarithmic growth phase: under aseptic condition, the experimental strain was inoculated into 100 mL NMB medium and incubated in a constant temperature and humidity incubator at 37° C. for 20-22 hours.
(§5) Preparation of storage solution: weighing the sample to be tested, dissolving it with 1% DMSO solution, preparing a storage solution with a concentration of 2560 μg/mL, weighing a positive reference substance, dissolving it with aseptic distilled water, and configuring a stock solution with a concentration of 2560 μg/mL.
(§6) Preparation of bacterial suspension: under aseptic condition, the experimental strains cultured to logarithmic growth phase were adjusted to 0.5 MCF turbidity standard with MHB medium and diluted according to 1:10, and the bacterial suspension with concentration of 10^6 CFU/mL was prepared for standby.
(§7) Stock solution dilution and inoculation of experimental strains: under aseptic conditions, diluting the stock solution to a solution of 256 μg/mL, taking a sterile 96-well plate, adding 100 μL of MHB medium to each well except for the first and second wells; adding 100 μL of positive control solution to the first well, and adding 100 μL of compound sample solution to the second and third wells; mixing the sample solution in the 3 wells with the medium, and then pipetting 100 μL to the 4th well, and then pipetting 100 μL to the 5th well after mixing, and then diluting to the 9th well in a series of times, and drawing 100 μL from the 9th well and discard, the 10th well is a growth control without drugs; then, adding 100 μL of the above-prepared bacterial suspension to each well to make the final bacterial concentration of each well 5×10^5 CFU/mL; the positive control concentration was 128 μg/mL, the concentrations of the sample solution were 128, 64, 32, 16, 8, 4, 2, 1 μg/mL. […]

Test [2] has as its system Carbapenem-resistant Acinetobacter baumannii CR-AB 18-184. The test can be described thus: MIC by microbroth dilution method, CR-AB 18-184. As to conditions: for Minimum bacteriostatic concentration: strain CR-AB 18-184, 37° C., 20-22 hours. On the procedure:
as §1, §2, §3, §4, §5, §6
(§8) Stock solution dilution and inoculation of experimental strains: under aseptic conditions, diluting the stock solution to a solution of 256 μg/mL, taking a sterile 96-well plate, adding 100 μL of MHB medium to each well except for the first and second wells; adding 100 μL of positive control solution to the first well, and adding 100 μL of compound sample solution to the second and third wells; mixing the sample solution in the 3 wells with the medium, and then pipetting 100 μL to the 4th well, and then pipetting 100 μL to the 5th well after mixing, and then diluting to the 9th well in a series of times, and drawing 100 μL from the 9th well and discard, the 10th well is a growth control without drugs; then, adding 100 μL of the above-prepared bacterial suspension to each well to make the final bacterial concentration of each well 5×10^5 CFU/mL; the positive control concentration was 128 μg/mL, the concentrations of the sample solution were 128, 64, 32, 16, 8, 4, 2, 1 μg/mL.
(§9) Incubation: covering the 96-well plate inoculated with the experimental strains, and incubating in a constant temperature and humidity box at 37° C. for 20-22 hours.

In test [3] the test system is methicillin-resistant Staphylococcus aureus MRSA 18-575. Kind of test: MIC by microbroth dilution method, MRSA 18-575. The following applies: for Minimum bacteriostatic concentration: strain MRSA 18-575, 37° C., 20-22 hours. On the procedure: as §1, §2, §3, §4, §5, §6, §8, §9
For orientation: Broth dilution looks for growth in wells or tubes with falling amounts of substance.

Test [4] concerns multi-drug-resistant Pseudomonas aeruginosa MDR-PA 18-126. Kind of test: MIC by microbroth dilution method, MDR-PA 18-126. The following applies: for Minimum bacteriostatic concentration: strain MDR-PA 18-126, 37° C., 20-22 hours. On the procedure: as §1, §2, §3, §4, §5, §6, §8, §9
The test system of test [5] is Carbapenem-resistant Acinetobacter baumannii CR-AB 18-560. The test can be described thus: MIC by microbroth dilution method, CR-AB 18-560. The following applies: strain CR-AB 18-560; 37° C., 20-22 hours. On the procedure:
as §1, §2, §3, §4, §5, §6, §7

Test [6] has as its system drug-resistant bacteria. The test can be described thus: Antibacterial activity test, summary over all experimental strains. As to conditions: text summary of FIG. 1-5 and Table 1. As for the experimental part: as §1, §2, §3
The experimental strain was cultured to the logarithmic growth phase: under aseptic condition, the experimental strain was inoculated into 100 mL NMB medium and incubated in a constant temperature and humidity incubator at 37° C. for 20-22 hours. […]

In the case of `CC(C)(O/N=C(\C(=O)N[C@@H]1C(=O)N2C(C(=O)[O-])=C(C[n+]3ccccc3)CS[C@H]12)c1csc(N)n1)C(=O)O` [Ceftazidime], the Minimum bacteriostatic concentration in test [1], in test [2], in test [3], in test [4] and in test [5] was 128 µg/mL in each case.

For orientation: MIC means the lowest concentration that inhibits growth of the organism. Read a low MIC as greater potency. On to `C=C[C@@]1(C)C[C@H](OC(=O)COC(=O)c2cc(O)c3c(c2)C(=O)c2cccc(O)c2C3=O)[C@]2(C)C3C(=O)CC[C@]3(CC[C@@H]2C)[C@H](C)[C@H]1O` (some centres unmarked) [Pleuromulin rhein ester], for which the Minimum bacteriostatic concentration is >128 µg/mL in test [1]; 64 µg/mL in test [2]; 64 µg/mL in test [3]; 64 µg/mL in test [4]; >128 µg/mL in test [5]. Further, the MIC in test [2] (Acinetobacter baumannii, CR-AB, strain number not stated (64 matches 18-184)) came to 64 µg/mL (≈ 99.3 µM); in test [3] (Staphylococcus aureus, MRSA) it was 64 µg/mL (≈ 99.3 µM); in test [4] (Pseudomonas aeruginosa, MDR-PA, strain number not stated (64 matches 18-126)), 64 µg/mL (≈ 99.3 µM).

Regarding `C=C[C@]1(C)C[C@@H](OC(=O)CO)[C@]2(C)[C@H](C)CC[C@]3(CCC(=O)[C@H]32)[C@@H](C)[C@@H]1O` [Pleuromulin], the Minimum bacteriostatic concentration in test [1], in test [2], in test [3], in test [4] and in test [5] was >128 µg/mL each time. Besides, in test [6], the “inhibitory effect on drug-resistant bacteria” value was “no inhibitory effect”.

Consider `O=C(O)c1cc(O)c2c(c1)C(=O)c1cccc(O)c1C2=O` [Rhein], for which the Minimum bacteriostatic concentration in test [1], in test [2], in test [3], in test [4] and in test [5] was >128 µg/mL throughout. Further, in test [6], the “inhibitory effect on drug-resistant bacteria” value is recorded as “no inhibitory effect”.

For the compound `CN[C@H](CC(C)C)C(=O)N[C@H]1C(=O)N[C@@H](CC(N)=O)C(=O)N[C@H]2C(=O)N[C@H]3C(=O)N[C@H](C(=O)N[C@H](C(=O)O)c4cc(O)cc(O)c4-c4cc3ccc4O)[C@H](O)c3ccc(c(Cl)c3)Oc3cc2cc(c3O[C@@H]2O[C@H](CO)[C@@H](O)[C@H](O)[C@H]2O[C@H]2C[C@](C)(N)[C@H](O)[C@H](C)O2)Oc2ccc(cc2Cl)[C@H]1O` [Vancomycin], the Minimum bacteriostatic concentration in test [3] came out at 512 µg/mL.
